Experiments:
Format in all cases: cell-based
Staph aureus Oxford [1] = assay: MIC, human bacteria, serial dilution in nutrient agar; conditions: nutrient agar containing 5% 'chocolated' horse blood
[2] = test system: Erysipelothrix rhusiopathiae NCTC 8163; assay: MIC, veterinary bacteria; conditions: veterinary bacteria (Table 2)
M. suipneumoniae LABER = assay: MIC, anti-mycoplasmal, Friis broth solidified with 0.9% agarose; conditions: inoculum 10^3 to 10^5 C.F.U., 6 days incubation at 37°C
S typhimurium S18 = assay: MIC, veterinary bacteria; conditions: veterinary bacteria (Table 2)
[3] = test system: Neisseria catarrhalis 1502; assay: MIC, human bacteria, serial dilution in nutrient agar; conditions: Neisseria catarrhalis 1502 (footnote a); nutrient agar containing 5% 'chocolated' horse blood
E coli NCTC 10418 [4] = assay: as above; conditions: nutrient agar containing 5% 'chocolated' horse blood
Past multocida PA1 = assay: MIC, veterinary bacteria; conditions: veterinary bacteria (Table 2)
Past multocida PA2 = assay: MIC, veterinary bacteria; conditions: veterinary bacteria (Table 2)
M. pneumoniae ATCC 15492 = assay: MIC, anti-mycoplasmal, Friis broth solidified with 0.9% agarose; conditions: inoculum 10^3 to 10^5 C.F.U., 6 days incubation at 37°C
[5] = test system: Haemophilus influenzae Q1; assay: MIC, human bacteria, serial dilution in nutrient agar; conditions: nutrient agar containing 5% 'chocolated' horse blood
Bord bronchiseptica BO8 = assay: MIC, veterinary bacteria; conditions: veterinary bacteria (Table 2)
Bord bronchisptica BO9 = assay: MIC, veterinary bacteria; conditions: veterinary bacteria (Table 2)
[6] = test system: M. suipneumoniae NCTC 10110; assay: MIC, anti-mycoplasmal, Friis broth solidified with 0.9% agarose; conditions: inoculum 10^3 to 10^5 C.F.U., 6 days incubation at 37°C
M. suipneumoniae JF 435 = assay: as above; conditions: inoculum 10^3 to 10^5 C.F.U., 6 days incubation at 37°C
Strep pyogenes A 64/848 = assay: MIC, human bacteria, serial dilution in nutrient agar; conditions: nutrient agar containing 5% 'chocolated' horse blood
Staph aureus W2827 = assay: as above; conditions: nutrient agar containing 5% 'chocolated' horse blood
M. dispar NCTC 10125 = assay: MIC, anti-mycoplasmal, Friis broth solidified with 0.9% agarose; conditions: inoculum 10^3 to 10^5 C.F.U., 6 days incubation at 37°C
M. suipneumoniae Str. 11 = assay: as above; conditions: inoculum 10^3 to 10^5 C.F.U., 6 days incubation at 37°C
Strep pyogenes B 2788 = assay: MIC, human bacteria, serial dilution in nutrient agar; conditions: nutrient agar containing 5% 'chocolated' horse blood
P mirabilis 889 = assay: as above; conditions: nutrient agar containing 5% 'chocolated' horse blood
[7] = test system: Staph aureus 152 (pen sens); assay: MIC, veterinary bacteria; conditions: veterinary bacteria (Table 2)
[8] = test system: M. suipneumoniae ATCC 25095; assay: MIC, anti-mycoplasmal, Friis broth solidified with 0.9% agarose; conditions: inoculum 10^3 to 10^5 C.F.U., 6 days incubation at 37°C
M. suipneumoniae NB12 = assay: as above; conditions: inoculum 10^3 to 10^5 C.F.U., 6 days incubation at 37°C
S dublin S7 = assay: MIC, veterinary bacteria; conditions: veterinary bacteria (Table 2)
M. hyorhinis ATCC 25021 = assay: MIC, anti-mycoplasmal, Friis broth solidified with 0.9% agarose; conditions: inoculum 10^3 to 10^5 C.F.U., 6 days incubation at 37°C
Staph aureus Russell = assay: MIC, human bacteria, serial dilution in nutrient agar; conditions: nutrient agar containing 5% 'chocolated' horse blood
[9] = test system: M. suipneumoniae J2206/183b; assay: MIC, anti-mycoplasmal, Friis broth solidified with 0.9% agarose; conditions: inoculum 10^3 to 10^5 C.F.U., 6 days incubation at 37°C
M. suipneumoniae HK(2) = assay: as above; conditions: inoculum 10^3 to 10^5 C.F.U., 6 days incubation at 37°C
[10] = test system: Strep suis (group D) SPS11; assay: MIC, veterinary bacteria; conditions: veterinary bacteria (Table 2)
[11] = test system: Staph aureus B4 (pen resis); assay: MIC, veterinary bacteria; conditions: veterinary bacteria (Table 2)
M. bovis NCTC 10131 = assay: microbe, parasite or virus in culture; conditions: M. bovis NCTC 10131; inoculum 10^3 to 10^5 C.F.U., 6 days incubation at 37°C
K aerogenes A = assay: MIC, human bacteria, serial dilution in nutrient agar; conditions: nutrient agar containing 5% 'chocolated' horse blood
E coli ESS = assay: as above; conditions: nutrient agar containing 5% 'chocolated' horse blood
Ps aeruginosa 10662 = assay: as above; conditions: nutrient agar containing 5% 'chocolated' horse blood
Strep uberis SPU1 = assay: MIC, veterinary bacteria; conditions: veterinary bacteria (Table 2)
[12] = test system: Pasteurella multocida 1633; assay: MIC, human bacteria, serial dilution in nutrient agar; conditions: nutrient agar containing 5% 'chocolated' horse blood
M. suipneumoniae UCD 1 = assay: MIC, anti-mycoplasmal, Friis broth solidified with 0.9% agarose; conditions: inoculum 10^3 to 10^5 C.F.U., 6 days incubation at 37°C
[13] = test system: Haemophilus influenzae Wy21; assay: MIC, human bacteria, serial dilution in nutrient agar; conditions: nutrient agar containing 5% 'chocolated' horse blood
Bacillus subtilis 6633 = assay: as above; conditions: nutrient agar containing 5% 'chocolated' horse blood
M. gallisepticum S6 = assay: MIC, anti-mycoplasmal, Friis broth solidified with 0.9% agarose; conditions: inoculum 10^3 to 10^5 C.F.U., 6 days incubation at 37°C
M. suipneumoniae MS 16 = assay: as above; conditions: inoculum 10^3 to 10^5 C.F.U., 6 days incubation at 37°C
Strep faecalis I = assay: MIC, human bacteria, serial dilution in nutrient agar; conditions: nutrient agar containing 5% 'chocolated' horse blood
M. suipneumoniae TAM 6N = assay: MIC, anti-mycoplasmal, Friis broth solidified with 0.9% agarose; conditions: inoculum 10^3 to 10^5 C.F.U., 6 days incubation at 37°C
[14] = test system: M. suipneumoniae PW/C/210; assay: as above; conditions: inoculum 10^3 to 10^5 C.F.U., 6 days incubation at 37°C
[15] = test system: Corynebacterium pyogenes CY1; assay: MIC, veterinary bacteria; conditions: veterinary bacteria (Table 2)
M. hyorhinis ATCC 23234 = assay: MIC, anti-mycoplasmal, Friis broth solidified with 0.9% agarose; conditions: inoculum 10^3 to 10^5 C.F.U., 6 days incubation at 37°C
Strep pneumoniae CN33 = assay: MIC, human bacteria, serial dilution in nutrient agar; conditions: nutrient agar containing 5% 'chocolated' horse blood
Past Haemolytica PA5 = assay: MIC, veterinary bacteria; conditions: veterinary bacteria (Table 2)
E coli NCTC 10418 [16] = assay: MIC, veterinary bacteria; conditions: veterinary bacteria (Table 2)
Staph aureus Oxford [17] = assay: MIC, veterinary bacteria; conditions: veterinary bacteria (Table 2)
[18] = test system: M. bovigenitalium ATCC 14173; assay: MIC, anti-mycoplasmal, Friis broth solidified with 0.9% agarose; conditions: inoculum 10^3 to 10^5 C.F.U., 6 days incubation at 37°C
Strep dysgalaciae SPD1 = assay: MIC, veterinary bacteria; conditions: veterinary bacteria (Table 2)
E coli E1 = assay: MIC, veterinary bacteria; conditions: veterinary bacteria (Table 2)
Strep pyogenes C 2761 = assay: MIC, human bacteria, serial dilution in nutrient agar; conditions: nutrient agar containing 5% 'chocolated' horse blood
Strep agalactiae SPA1 = assay: MIC, veterinary bacteria; conditions: veterinary bacteria (Table 2)
[19] = test system: M. hyosynoviae ATCC 25591; assay: MIC, anti-mycoplasmal, Friis broth solidified with 0.9% agarose; conditions: inoculum 10^3 to 10^5 C.F.U., 6 days incubation at 37°C

5-Acetylpentyl monate A [Example 7]
MIC (Staph aureus Oxford [1]): 1.0 µm/ml | MIC [2]: 40 µg/mL | in vitro MIC (M. suipneumoniae LABER): 0.25 µg/mL | MIC (S typhimurium S18): >80 µg/mL | MIC [3]: ^a0.5 µm/ml | MIC (E coli NCTC 10418 [4]): >100 µm/ml | MIC (Past multocida PA1): .625 µg/mL | MIC (Past multocida PA2): .312 µg/mL | in vitro MIC (M. pneumoniae ATCC 15492): 0.5 µg/mL | MIC [5]: 0.2 µm/ml | MIC (Bord bronchiseptica BO8): 40 µg/mL | MIC (Bord bronchisptica BO9): 5 µg/mL | in vitro MIC [6]: 0.5 µg/mL | in vitro MIC (M. suipneumoniae JF 435): 0.25 µg/mL | MIC (Strep pyogenes A 64/848): 0.5 µm/ml | MIC (Staph aureus W2827): 2.5 µm/ml | in vitro MIC (M. dispar NCTC 10125): 0.05 µg/mL | in vitro MIC (M. suipneumoniae Str. 11): 0.25 µg/mL | MIC (Strep pyogenes B 2788): 2.5 µm/ml | MIC (P mirabilis 889): >100 µm/ml | MIC [7]: .625 µg/mL | in vitro MIC [8]: 0.25 µg/mL | in vitro MIC (M. suipneumoniae NB12): 0.25 µg/mL | MIC (S dublin S7): >80 µg/mL | in vitro MIC (M. hyorhinis ATCC 25021): 0.1 µg/mL | MIC (Staph aureus Russell): 1.0 µm/ml | in vitro MIC [9]: 0.5 µg/mL | in vitro MIC (M. suipneumoniae HK(2)): 0.5 µg/mL | MIC [10]: 5 µg/mL | MIC [11]: .625 µg/mL | in vitro MIC (M. bovis NCTC 10131): <0.01 µg/mL | MIC (K aerogenes A): >100 µm/ml | MIC (E coli ESS): 0.5 µm/ml | MIC (Ps aeruginosa 10662): >100 µm/ml | MIC (Strep uberis SPU1): .156 µg/mL | MIC [12]: 0.5 µm/ml | in vitro MIC (M. suipneumoniae UCD 1): 0.5 µg/mL | MIC [13]: 0.1 µm/ml | MIC (Bacillus subtilis 6633): 0.5 µm/ml | in vitro MIC (M. gallisepticum S6): 2.5 µg/mL | in vitro MIC (M. suipneumoniae MS 16): 0.25 µg/mL | MIC (Strep faecalis I): >100 µm/ml | in vitro MIC (M. suipneumoniae TAM 6N): 0.5 µg/mL | in vitro MIC [14]: 0.25 µg/mL | MIC [15]: >80 µg/mL | in vitro MIC (M. hyorhinis ATCC 23234): 0.1 µg/mL | MIC (Strep pneumoniae CN33): 0.5 µm/ml | MIC (Past Haemolytica PA5): 5 µg/mL | MIC (E coli NCTC 10418 [16]): 80 µg/mL | MIC (Staph aureus Oxford [17]): .625 µg/mL | in vitro MIC [18]: 0.025 µg/mL | MIC (Strep dysgalaciae SPD1): .312 µg/mL | MIC (E coli E1): >80 µg/mL | MIC (Strep pyogenes C 2761): 2.5 µm/ml | MIC (Strep agalactiae SPA1): .625 µg/mL | in vitro MIC [19]: 0.025 µg/mL

— EP0025288A1, “Derivatives of monic acid, processes for their preparation, compositions containing them and their preparation” (priority 1979, dated 1981)
